Some test systems named below: EKVX; M14; OVCAR-8; OVCAR-5; SF-539; OVCAR-4; NCI-H23; HOP-92; SK-MEL-28; SF-295; IGROV-1; SNB-75; Malme-3M; HT-29; SK-OV-3; U-251; CCRF-CEM; K562; LOX IMVI; NCI-H226.
Common to all, as to assay: NCI tumour cell line growth inhibition, 48 h

Here are results for four compounds from ChEMBL document CHEMBL1201862, “PubChem BioAssay data set” (2004).

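Compound exposure: 48 hours, 5 concentrations, 96-well plates. GI50 marks 50% less growth.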 Activity calls are given as the source filed them. Cut-off read from the data, not from the text of the source: active = GI50 up to about 1.1 µM and inactive = higher.

As for `O=C(NN1C(=O)C(Cl)C1c1cccc([N+](=O)[O-])c1)c1ccccc1O` (stereo not given), the GI50 with EKVX, in the assay on M14, in the assay on OVCAR-8, with OVCAR-5, in the assay on SF-539 and in the assay with OVCAR-4 was > 100 µM (inactive) in each case. The GI50 in the assay on NCI-H23 was > 100 µM (inactive); with HOP-92, > 100 µM (inactive); in the assay with SK-MEL-28, > 100 µM (inactive); with SF-295, > 100 µM (inactive); in the assay on IGROV-1 it was 76.4 µM (inactive); in the assay with SNB-75, > 100 µM (inactive). The GI50 in the assay on Malme-3M is 59.8 µM (inactive); in the assay with HT-29, > 100 µM (inactive); with SK-OV-3 it was > 100 µM (inactive); in the assay on U-251, > 100 µM (inactive); in the assay with CCRF-CEM, 35.6 µM (inactive); in the assay with K562, > 100 µM (inactive).
With `C=C1C(=O)OC2/C=C(\C)CC/C=C(/C)CC(OC(=O)/C(=C/CO)CO)C12` (stereo not given), the GI50 with EKVX is > 10 µM (inactive); in the assay on M14 it was 18.1 µM (inactive); in the assay on OVCAR-8, 32.4 µM (inactive); in the assay on OVCAR-5, 18.7 µM (inactive); in the assay with SF-539, 24.5 µM (inactive); in the assay with OVCAR-4, 33.6 µM (inactive). In addition, the GI50 was 18.2 µM (inactive) with NCI-H23; 26.7 µM (inactive) with HOP-92; 28.4 µM (inactive) in the assay with SK-MEL-28; 93.5 µM (inactive) with SF-295; 33.5 µM (inactive) with IGROV-1; 45.4 µM (inactive) in the assay with SNB-75. Further, the GI50 with LOX IMVI is 23.4 µM (inactive); with Malme-3M, 20.1 µM (inactive); in the assay with HT-29 it was 27.2 µM (inactive); in the assay with SK-OV-3 it was > 100 µM (inactive); in the assay on U-251 it was 20.9 µM (inactive); with CCRF-CEM, 6.43 µM (inactive). Also, the GI50 with K562 was 30 µM (inactive).
In the case of `Cc1cc2nc3c(C)c4ccccc4c(C)n3c2cc1C`, the GI50 was 5 µM (inactive) in the assay on EKVX; 2.61 µM (inactive) in the assay on M14; 1.73 µM (inactive) with OVCAR-8; 2.48 µM (inactive) in the assay with OVCAR-5; 1.56 µM (inactive) in the assay with SF-539; 4.35 µM (inactive) in the assay on OVCAR-4. The GI50 in the assay with NCI-H23 is 2.67 µM (inactive); with HOP-92, 2.09 µM (inactive); in the assay with SK-MEL-28 it was 3.27 µM (inactive); with SF-295, 2.59 µM (inactive); in the assay on IGROV-1, 2.05 µM (inactive); in the assay with SNB-75, 4.97 µM (inactive). Moreover, the GI50 with LOX IMVI is 0.857 µM (active); in the assay with Malme-3M, 1.98 µM (inactive); in the assay on HT-29, 2.2 µM (inactive); in the assay on SK-OV-3, 7.06 µM (inactive); with U-251, 3.33 µM (inactive); with CCRF-CEM, 3.84 µM (inactive). For the same compound, the GI50 with K562 is 5.21 µM (inactive).
In the case of `CC[C@]1(c2ccc3c(c2)OCO3)C=[N+]([O-])O[C@H](OC2CCCC2(c2ccccc2)c2ccccc2)[C@@H]1OC(C)=O` (stereo not given in full), the GI50 was 2.42 µM (inactive) with EKVX; 2.28 µM (inactive) with M14; 1.95 µM (inactive) with OVCAR-8; 3.83 µM (inactive) in the assay on OVCAR-5; 4.22 µM (inactive) in the assay on SF-539; 2.62 µM (inactive) in the assay on OVCAR-4. Besides, the GI50 with NCI-H23 is 2.48 µM (inactive); in the assay on HOP-92, 2.09 µM (inactive); with SK-MEL-28, 2.12 µM (inactive); with SF-295 it was 1.32 µM (inactive); in the assay on IGROV-1, 1.94 µM (inactive); with SNB-75, 2.16 µM (inactive). For the same compound, the GI50 in the assay on NCI-H226 is 4.3 µM (inactive); in the assay on LOX IMVI it was 2.09 µM (inactive); in the assay on HT-29, 1.68 µM (inactive); in the assay on SK-OV-3, 3.01 µM (inactive); in the assay with U-251, 3.62 µM (inactive); in the assay on CCRF-CEM, 2.86 µM (inactive). The GI50 in the assay with K562 was 2.36 µM (inactive).
